We go through 20 compounds from EP4745134A1 (Jiangsu Yahong Meditech Co., Ltd., priority 2023, dated 2025).

Like-named read-outs stand apart in the source and are kept apart here. Where only a bound is given, the exact number is not on record here.

For test [1], the system named is HCT116 MTAP KO cells. Description: Inhibitory activity against cell proliferation (CellTiter Glo, 6 days), HCT116 MTAP KO. It is filed as cell-based. Particulars: for IC50: Homo sapiens, HCT-116, 144 h; for Selectivity HCT 116-WT/ HCT116 MTAP KO: ratio of IC50 HCT116-WT / HCT116 MTAP KO. The essentials: (§1)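 HCT116 wild-type or MTAP-knockout cells (250/well, McCoy's 5A + 10% FBS) treated after overnight culture with 8-point 4-fold dilutions from 10000 nM for 6 days at 37 °C. Viability read by CellTiter Glo luminescence on day 7; IC50 calculated against DMSO controls.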
A general note: Cellular ATP, detected with luciferase, serves as a proxy for viable cell number.

The target in test [2] is PRMT5-MTA (Homo sapiens, UniProt O14744). As to the kind of experiment: Enzymatic inhibitory activity against PRMT5-MTA (AlphaScreen). The format is biochemical. Summed up: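 PRMT5/[…] (1 nM) was preincubated for 30 min at room temperature with 1 µM […] and 2.5 µM SAM, then exposed to compound (10-point, 3-fold from 1000 nM) for 15 min at 23 °C. Histone H4 substrate (5 nM) was added and reacted for 45 min at 23 °C. Symmetric dimethyl-R3 H4 was detected by AlphaScreen and IC50 calculated.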
A general note: Alpha assays give light when donor and acceptor beads are brought close together.

For test [3], the system named is HCT116-WT cells. Description: Inhibitory activity against cell proliferation (CellTiter Glo, 6 days), HCT116-WT. As to conditions: 144 h. The format is cell-based. Summed up: as §1
Setting [4] is: HCT116 MTAP KO cells, 6 days, CellTiter Glo, read-out: HCT116 MTAP KO IC50.
Where [5] appears, read: HCT116-WT cells, 6 days, CellTiter Glo, read-out: HCT116-WT IC50.

Chain of PRMT5-MTA (O14744 whole entry): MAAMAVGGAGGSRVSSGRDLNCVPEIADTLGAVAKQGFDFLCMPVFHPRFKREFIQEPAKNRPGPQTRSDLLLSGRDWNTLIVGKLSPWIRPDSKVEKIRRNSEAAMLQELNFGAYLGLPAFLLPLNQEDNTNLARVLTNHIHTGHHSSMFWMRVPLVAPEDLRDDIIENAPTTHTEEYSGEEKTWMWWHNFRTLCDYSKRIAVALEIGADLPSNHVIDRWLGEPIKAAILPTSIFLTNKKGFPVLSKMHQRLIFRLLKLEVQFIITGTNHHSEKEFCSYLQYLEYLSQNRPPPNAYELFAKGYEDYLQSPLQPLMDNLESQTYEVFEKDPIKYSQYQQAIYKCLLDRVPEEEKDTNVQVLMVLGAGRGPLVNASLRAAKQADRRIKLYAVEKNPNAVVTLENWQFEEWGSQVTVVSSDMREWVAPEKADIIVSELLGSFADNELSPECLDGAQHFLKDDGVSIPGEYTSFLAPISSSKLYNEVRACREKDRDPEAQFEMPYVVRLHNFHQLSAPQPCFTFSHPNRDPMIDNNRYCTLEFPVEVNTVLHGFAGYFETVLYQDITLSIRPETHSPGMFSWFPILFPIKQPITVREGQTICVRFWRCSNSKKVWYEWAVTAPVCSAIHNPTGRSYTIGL
Chain of PRMT5-MTA (Q9BQA1 whole entry partner): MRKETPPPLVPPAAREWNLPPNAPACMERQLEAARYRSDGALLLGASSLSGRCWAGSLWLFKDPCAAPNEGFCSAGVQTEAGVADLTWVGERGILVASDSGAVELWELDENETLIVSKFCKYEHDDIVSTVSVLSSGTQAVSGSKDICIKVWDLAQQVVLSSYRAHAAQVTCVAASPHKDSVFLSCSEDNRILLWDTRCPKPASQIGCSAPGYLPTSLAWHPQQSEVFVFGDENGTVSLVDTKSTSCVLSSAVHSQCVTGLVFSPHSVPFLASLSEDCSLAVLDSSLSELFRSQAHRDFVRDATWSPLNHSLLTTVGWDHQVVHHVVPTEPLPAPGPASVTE

With `Cc1cc2cc(C(=O)N(Cc3c(F)cc(Br)cc3F)N(C)c3ncccn3)ccc2nc1N` [Example 278, 2-amino-N-(4-bromo-2,6-difluorobenzyl) -N',3-dimethyl-N'-(pyrimidin-2-yl)quinoline-6-carbohydrazide], the IC50 (as a rule, the concentration that inhibits the measured activity by half) in test [1] (setting [4]) was 28 nM; in test [2] (read-out: IC50), 1.5 nM; in test [3] (setting [5]), 395 nM. The “Selectivity HCT 116-WT/ HCT116 MTAP KO” value in test [1] worked out at 14.11.
In the same order, the values of `Cc1nc(C)c(-c2ccc(CN(C(=O)c3ccc4nc(N)c(C)cc4c3)N(c3ncccn3)C3CC3)nc2)s1` [Example 158, 2-amino-N'-cyclopropyl-N-((5-(2,4-dimethylthiazol-5-yl)pyridin-2-yl)methyl)-3-m ethyl-N'-(pyrimidin-2-yl)quinoline-6-carb ohydrazide] are 12 nM, 4.5 nM, 225 nM and 18.75.
For `Cc1cc2nc(N)c3cnn(C)c3c2cc1C(=O)N1CC(C(F)(F)F)CN1c1ncccc1F` (stereo not shown) [Example 350, (4-amino-1,7-dimethyl-1H-pyrazolo[4,3-c]quinolin-8-yl)(2-(3-fluoropyridin-2-yl)-4-(trifluoromethyl)pyrazolidin-1-yl)methanone], in that order: 29 nM, 3.5 nM, 1030 nM and 35.38.
For `C=C1CN(C(=O)c2cc3c(cc2Cl)nc(N)c2cnn(C)c23)N(c2ncccc2F)C1` [Example 433, (4-amino-7-chloro-1-methyl-1H-pyrazolo [4,3-c]quinolin-8-yl)(2-(3-fluoropyridin-2-yl)-4-methylenepyrazolidin-1-yl)methanone], the results for the IC50 in test [1] (setting [4]), in test [2] (read-out: IC50) and in test [3] (setting [5]) were 33 nM, 3.8 nM and 1110 nM, respectively. The “Selectivity HCT 116-WT/ HCT116 MTAP KO” value in test [1] is 33.64.
In the case of `Cc1cc2cc(C(=O)N(Cc3ccc(-c4cnn(C)c4)cn3)N(C)c3nccc4nccnc34)ccc2nc1N` [Example 162, 2-amino-N',3-dimethyl-N-((5-(1-methyl-1H-pyrazol-4-yl)pyridin-2-yl)methyl)-N'-(pyrido[3,4-b]pyrazin-5-yl)quinoline-6-carbohydrazide], the figures for the IC50 in test [1] (setting [4]), in test [2] (read-out: IC50) and in test [3] (setting [5]) were 36 nM, 5.4 nM and 850 nM, respectively. Also, the “Selectivity HCT 116-WT/ HCT116 MTAP KO” value in test [1] amounted to 23.61.
In the same order, the values of `Cc1cc2cc(C(=O)N(Cc3ccc(C(F)(F)F)cn3)N(C)c3nccc4ccsc34)ccc2nc1N` [Example 274, 2-amino-N',3-dimethyl-N'-(thieno[2,3-c]pyridin-7-yl)-N-((5-(trifluoromethyl)pyridin-2-yl)methyl)quinoline-6-carbohydrazide] are 167 nM, 3.7 nM, 2520 nM and 15.10.
For `Cc1cc2nc(N)c3cnn(C)c3c2cc1C(=O)N1CC(C)CN1c1ncc(C#CCO)cc1F` (stereo not shown) [Example 492, (4-amino-1,7-dimethyl-1H-pyrazolo[4,3-c]quinolin-8-yl)(2-(3-fluoro-5-(3-hydroxyprop-1-yn-1-yl)pyridin-2-yl)-4-methylpyrazolidin-1-yl)methanone], in that order: 37 nM, 3.3 nM, 1940 nM and 52.49.
For `Cc1cc2nc(N)c3cnn(C)c3c2cc1C(=O)N1CC(OCC(F)(F)F)CN1c1ncccc1F` (stereo not shown) [Example 452, (4-amino-1,7-dimethyl-1H-pyrazolo[4,3-c]quinolin-8-yl)(2-(3-fluoropyridin-2-yl)-4-(2,2,2-trifluoroethoxy)pyrazolidin-1-yl) methanone], in that order: 45 nM, 7.3 nM, 1420 nM and 31.67.
As to `Cc1cc2cc(C(=O)N(Cc3ccc4ncccc4n3)N(C)c3ncccn3)ccc2nc1N` [Compound 283, N-((1,5-naphthyridin-2-yl)methyl)-2-ami no-N',3-dimethyl-N'-(pyrimidin-2-yl)qui noline-6-carbohydrazide], the values for the IC50 in test [1] (setting [4]), in test [2] (read-out: IC50) and in test [3] (setting [5]) were 244 nM, 1.7 nM and 2710 nM, respectively. Besides, the “Selectivity HCT 116-WT/ HCT116 MTAP KO” value in test [1] is reported as 11.11.
In the same order, the values of `COC1(c2ccc(CN(C(=O)c3ccc4nc(N)c(C)cc4c3)N(C)c3ncccn3)nc2)COC1` [Example 284, 2-amino-N-((5-(3-methoxyoxetan-3-yl)pyridin-2-yl)methyl)-N',3-dimethyl-N'-(pyrimidin-2-yl)quinoline-6-carbohydrazide] are 194 nM, 2.3 nM, 3440 nM and 17.71.
With `Cc1cc2nc(N)c3cnn(C)c3c2cc1C(=O)N(C)N1CCc2ccccc21` [Example 279], the IC50 in test [1] (read-out: HCT116 MTAP KO IC50 (nM)) is 284 nM; in test [2], 4.3 nM; in test [3] (read-out: HCT116-WT IC50 (nM)), over 10000 nM.
As for `Cc1cc2cc(C(=O)N(Cc3ccc(-c4ccc(N)nc4)cn3)N(C)c3ncccn3)ccc2nc1N` [Example 144, 2-amino-N-((6'-amino-[3,3'-bipyridine]-6-yl)methyl)-N',3-dimethyl-N'-(pyrimidin-2-yl)quinoline-6-carbohydrazide], the half-maximal inhibitory concentration (IC50) in test [1] (setting [4]) amounted to 26 nM; in test [2] (read-out: IC50) it was 1.5 nM; in test [3] (setting [5]), 616 nM. For the same compound, the “Selectivity HCT 116-WT/ HCT116 MTAP KO” value in test [1] is given as 23.69.
In the same order, the values of `Cc1cc2cc(C(=O)N(Cc3ccc(-c4ccc(=O)n(C)c4)cn3)N(C)c3ncccn3)ccc2nc1N` [Example 155, 2-amino-N',3-dimethyl-N-((1'-methyl-6'-oxo-1',6'-dihydro-[3,3'-bipyridine]-6-yl)methyl)-N'-(pyrimidin-2-yl)quinoline-6-car bohydrazide] are 42 nM, 2.3 nM, 1260 nM and 30.00.
In the same order, the values of `COC1CN(C(=O)c2cc3c(cc2Cl)nc(N)c2cnn(C)c23)N(c2ncc(Br)cc2F)C1` (stereo not shown) [Example 439, (4-amino-7-chloro-1-methyl-1H-pyrazolo [4,3-c]quinolin-8-yl)(2-(5-bromo-3-fluor opyridin-2-yl)-4-methoxypyrazolidin-1-yl)methanone] are 37 nM, 5.5 nM, 735 nM and 19.86.
For `C=Cc1ccc(CN(C(=O)c2ccc3nc(N)c(C)cc3c2)N(C)c2ncccn2)nc1` [Example 188, 2-amino-N',3-dimethyl-N'-(pyrimidin-2-yl)-N-((5-vinylpyridin-2-yl)methyl)quinoline-6-carbohydrazide], in that order: 126 nM, 2.7 nM, 2830 nM and 22.44.
For `Cc1cc2cc(C(=O)N(Cc3ccc(C(F)(F)F)cn3)N(C)c3nccc4ncccc34)ccc2nc1N` [Example 108, 2-amino-N',3-dimethyl-N'-(1,6-naphthyridin-5-yl)-N-((5-(trifluoromethyl)pyridin-2-yl)methyl)quinoline-6-carbohydrazide], the IC50 in test [1] (setting [4]) worked out at 141 nM; in test [2] (read-out: IC50), 1.9 nM; in test [3] (setting [5]) it was 3420 nM. In addition, the “Selectivity HCT 116-WT/ HCT116 MTAP KO” value in test [1] came to 24.26.
Regarding `Cc1cc2nc(N)c3cnn(C)c3c2cc1C(=O)N1CC(C)CN1c1ncc(C2CC2)cc1F` (stereo not shown) [Example 489], the IC50 turned out to be 54 nM in test [1] (setting [4]), 4.8 nM in test [2] and 1410 nM in test [3] (setting [5]). Also, in test [1], the “Selectivity HCT 116-WT/ HCT116 MTAP KO” value turned out to be 26.04.
`Cc1cc2nc(N)c3cnn(C)c3c2cc1C(=O)N1CC(C)(O)CN1c1ncccc1F` (stereo not shown) [Example 427, (4-amino-1,7-dimethyl-1H-pyrazolo[4,3-c]quinolin-8-yl)(2-(3-fluoropyridin-2-yl)-4-hydroxy-4-methylpyrazolin-1-yl)methanone]: the results for the half-maximal inhibitory concentration (IC50) in test [1] (setting [4]), in test [2] (read-out: IC50) and in test [3] (setting [5]) were 235 nM, 6.2 nM and over 10000 nM, respectively. Besides, the “Selectivity HCT 116-WT/ HCT116 MTAP KO” value in test [1] is on record as over 42.55.
In the same order, the values of `Cc1cc2nc(N)c3cnn(C)c3c2cc1C(=O)N1CC(C)CN1c1ccc(F)cc1F` (stereo not shown) [Example 381, (4-amino-1,7-dimethyl-1H-pyrazolo[4,3-c]quinolin-8-yl)(2-(2,4-difluorophenyl)-4-methylpyrazolidin-1-yl)methanone] are 63 nM, 4 nM, 2330 nM and 36.92.
For `Cn1ncc2c(N)nc3cc(Cl)c(C(=O)N4CC5(CN4c4cccc(F)n4)CC(F)(F)C5)cc3c21` [Example 414, (4-amino-7-chloro-1-methyl-1H-pyrazolo [4,3-c]quinolin-8-yl)(2,2-difluoro-7-(6-fluoropyridin-2-yl)-6,7-diazaspiro[3.4]octan-6-yl)methanone], in that order: 18 nM, 6.2 nM, 305 nM and 16.94.
